Experimental data published in PMC6440464 (PeerJ, 2019).
Where two headings read alike, the source gives them in different places.

Assay: Pharmacokinetics study after separate oral administration in rats (HPLC-MS of plasma)
Type: in vivo, Sprague-Dawley rats
Conditions: for AUC(0-t) / MRT last / Tmax / CL/F / Cmax / half-life: po; for Tmax: read-out: Tmax (converted); for CL/F: read-out: CLz/F; for Cmax: read-out: Cmax; for half-life: read-out: t1/2z
Protocol: A total of 15 SPF Sprague-Dawley rats (SD, male, 190–210 g) were provided by Sino-British Sippr/BK Lab Animal Company Ltd. (Shanghai, China). The rats were kept in standard conditions (22–26 °C; 40–60% relative humidity; 12 h light/dark cycle). Throughout the rearing period, the animals had access to food and water ad libitum. Animal experiments were conducted in accordance with the standard ethical guidelines of the Laboratory Animal Management Committee of Jiangsu Province (SYXK (SU) 2016-0011).
Following 1 week of adaptation, the rats were fasted for about 12 h before dosing, with free access to water. […] After administration of the first dose, blood samples were taken from the retro-orbital vein at 0, 5, 15, 30, 60, 90, 120, 180, 240, 360, 480, and 1,440 min and collected in heparinized tubes. The samples were centrifuged at 3,500 rpm for 10 min at 4 °C and the plasma was stored at −80 °C until analysis.
An Agilent 1,200 series HPLC system (Agilent Technologies, Waldbronn, Germany) equipped with a quaternary pump on-line degasser, auto-sampler and column oven, and an SL G1946D quadruple mass spectrometer (Agilent Technologies, Santa Clara, CA, USA) equipped with an electrospray ionization (ESI) source, were used for separation and detection. Data were acquired and analyzed using Agilent ChemStation Software Version A.01.00 (Agilent Technologies, Santa Clara, CA, USA).
The separation was carried out with an Amethyst C18-H column (150 × 4.6 mm, 5 μm, Sepax Technologies, Newark, DE, USA) with a guard column SB-C18 (10 × 4.6 mm, 5 μm, Phenomenex Technologies, Torrance, USA) at a constant temperature of 25 °C.
The mass spectra were acquired using ESI interfaced to a single quadrupole mass spectrometer. The ionization conditions were as follows: drying gas (N2) flow rate of 11 L/min, drying gas temperature of 350 °C, nebulizing gas (N2) pressure of 35 psi, capillary voltage of 3,500 V, quad temperature of 100 °C, and fragment voltage of 110 V. A series of m/z were monitored using a timed program according to the retention times and characteristic ions for the corresponding HPLC-MS peak obtained by scanning from m/z 100–1,000 in the standard sample.
Briefly, an aliquot of plasma sample (100 μL) was spiked with 5% formic acid (10 μL) in centrifuge tube. Subsequently, hydrochloric acid (2 mol/L, 10 μL) and IS solution (960.00 ng/mL, 20 μL) were added. Then ethyl acetate/n-butyl alcohol (1:1 v/v; 1,000 μL) was used to extract the components. The samples were then homogenized by vortex mixing and centrifuged for 10 min at 14,000 rpm. After centrifugation, 800 μL of supernatant was transferred to another centrifuge tube and the sample was evaporated to dryness. The residues were dissolved in 100 μL of methanol and centrifuged for 10 min at 12,000 rpm. 50 μL of the supernatant was transferred to the vial and an aliquot of 5 μL was injected into the HPLC-MS system for analysis.
DAS 2.0 (Chinese Pharmacological Association, Shanghai, China) was used to calculate the pharmacokinetic parameters using the non-compartment model, including the area under curve (AUC), mean residence time (MRT), half-life ( t1/2z), clearance rate (CL), maximum plasma concentration (Cmax), and time (Tmax). All results are expressed as mean ± standard deviation (SD). One way analysis of variance followed by […] was used for comparison of different groups using Graph pad prism 5 software. A p-value of <0.05 was considered statistically significant.

[1] = male, Sprague-Dawley, rat, plasma, 50 mg/kg, IQ group (oral IQ 50 mg/kg), rat plasma, labelled substance = analyte, mean of 5 rats
[2] = male, Sprague-Dawley, rat, plasma, 50 mg/kg, IQ group: oral IQ 50 mg/kg, rat plasma, mean ± SD, n = 5
[3] = male, Sprague-Dawley, rat, plasma, 50 mg/kg, QG group (oral QG 50 mg/kg), rat plasma, labelled substance = analyte, mean of 5 rats
[4] = male, Sprague-Dawley, rat, plasma, 50 mg/kg, QG group: oral QG 50 mg/kg, rat plasma, mean ± SD, n = 5
[5] = male, Sprague-Dawley, rat, plasma, 50 mg/kg, Qr group (oral Qr 50 mg/kg), rat plasma, labelled substance = analyte, mean of 5 rats
[6] = male, Sprague-Dawley, rat, plasma, 50 mg/kg, Qr group: oral Qr 50 mg/kg, rat plasma, mean ± SD, n = 5

AUC0−t (Qr group: oral Qr 50 mg/kg, rat plasma, mean ± SD, n = 5): 1,150.0 ± 454.2 mg/L*min | Shape of mean plasma concentration-time profile (after oral administration of QG 50 mg/kg): clear double peak phenomenon | concentration at 120 min (male, Sprague-Dawley, rat, plasma, oral, 50 mg/kg, IQ group (oral IQ 50 mg/kg), 120 min, individual rats NO. 1-5, read-out: Plasma concentrations): 872 ng/mL | AUC(0-t) (male, Sprague-Dawley, rat, plasma, 50 mg/kg, IQ group (oral IQ 50 mg/kg), rat plasma, labelled substance = analyte, individual rats No1-No5, read-out: AUC(0-t) (converted)): 8820 ng·h/mL | MRT last (male, Sprague-Dawley, rat, plasma, 50 mg/kg, IQ group (oral IQ 50 mg/kg), rat plasma, labelled substance = analyte, individual rats No1-No5, read-out: MRT(0-t) (converted)): 4.63 h | Tmax (male, Sprague-Dawley, rat, plasma, 50 mg/kg, IQ group (oral IQ 50 mg/kg), rat plasma, labelled substance = analyte, individual rats No1-No5): 0.5 h | AUC(0-t) (male, Sprague-Dawley, rat, plasma, 50 mg/kg, IQ group (oral IQ 50 mg/kg), rat plasma, labelled substance = analyte, mean of 5 rats, read-out: AUC(0-t) (converted)): 11200 ng·h/mL | CL/F [1]: 70 mL/min/kg | Cmax [1]: 3900 ng/mL | MRT last (male, Sprague-Dawley, rat, plasma, 50 mg/kg, IQ group (oral IQ 50 mg/kg), rat plasma, labelled substance = analyte, mean of 5 rats, read-out: MRT(0-t) (converted)): 5.93 h | Tmax [1]: 0.5 h | half-life [1]: 8.73 h | AUC(0-t) (male, Sprague-Dawley, rat, plasma, 50 mg/kg, IQ group: oral IQ 50 mg/kg, rat plasma, mean ± SD, n = 5, read-out: AUC0−t (converted)): 11200 ng·h/mL | Cmax [2]: 3910 ± 1340 ng/mL | MRT last (male, Sprague-Dawley, rat, plasma, 50 mg/kg, IQ group: oral IQ 50 mg/kg, rat plasma, mean ± SD, n = 5, read-out: MRT0−t (converted)): 5.93 h | Tmax [2]: 0.5 h | half-life [2]: 8.72 ± 3.17 h | MRT last (male, Sprague-Dawley, rat, plasma, 50 mg/kg, QG group (oral QG 50 mg/kg), rat plasma, labelled substance = analyte, individual rats No1-No5, read-out: MRT(0-t) (converted)): 6.52 h | half-life (male, Sprague-Dawley, rat, plasma, 50 mg/kg, QG group (oral QG 50 mg/kg), rat plasma, labelled substance = analyte, individual rats No1-No5): 4.98 h | AUC(0-t) (male, Sprague-Dawley, rat, plasma, 50 mg/kg, QG group (oral QG 50 mg/kg), rat plasma, labelled substance = analyte, mean of 5 rats, read-out: AUC(0-t) (converted)): 16000 ng·h/mL | CL/F [3]: 71 mL/min/kg | Cmax [3]: 2040 ng/mL | MRT last (male, Sprague-Dawley, rat, plasma, 50 mg/kg, QG group (oral QG 50 mg/kg), rat plasma, labelled substance = analyte, mean of 5 rats, read-out: MRT(0-t) (converted)): 7.3 h | Tmax [3]: 3.7 h | half-life [3]: 6.27 h | AUC(0-t) (male, Sprague-Dawley, rat, plasma, 50 mg/kg, QG group: oral QG 50 mg/kg, rat plasma, mean ± SD, n = 5, read-out: AUC0−t (converted)): 16000 ng·h/mL | Cmax [4]: 2040 ± 850 ng/mL | MRT last (male, Sprague-Dawley, rat, plasma, 50 mg/kg, QG group: oral QG 50 mg/kg, rat plasma, mean ± SD, n = 5, read-out: MRT0−t (converted)): 7.3 h | Tmax [4]: 3.7 h | half-life [4]: 6.27 ± 1.59 h | Tmax (male, Sprague-Dawley, rat, plasma, 50 mg/kg, Qr group (oral Qr 50 mg/kg), rat plasma, labelled substance = analyte, individual rats No1-No5): 0.5 h | AUC(0-t) (male, Sprague-Dawley, rat, plasma, 50 mg/kg, Qr group (oral Qr 50 mg/kg), rat plasma, labelled substance = analyte, mean of 5 rats, read-out: AUC(0-t) (converted)): 19200 ng·h/mL | CL/F [5]: 43 mL/min/kg | Cmax [5]: 6460 ng/mL | MRT last (male, Sprague-Dawley, rat, plasma, 50 mg/kg, Qr group (oral Qr 50 mg/kg), rat plasma, labelled substance = analyte, mean of 5 rats, read-out: MRT(0-t) (converted)): 5.27 h | Tmax [5]: 0.7 h | half-life [5]: 9.1 h | AUC(0-t) (male, Sprague-Dawley, rat, plasma, 50 mg/kg, Qr group: oral Qr 50 mg/kg, rat plasma, mean ± SD, n = 5, read-out: AUC0−t (converted)): 25800 ng·h/mL | Cmax [6]: 6460 ± 2940 ng/mL | MRT last (male, Sprague-Dawley, rat, plasma, 50 mg/kg, Qr group: oral Qr 50 mg/kg, rat plasma, mean ± SD, n = 5, read-out: MRT0−t (converted)): 5.26 h | Tmax [6]: 0.7 h | half-life [6]: 9.1 ± 7.28 h
Compound: O=C(O)[C@H]1O[C@@H](Oc2c(-c3ccc(O)c(O)c3)oc3cc(O)cc(O)c3c2=O)[C@H](O)[C@@H](O)[C@@H]1O [QG, Quercetin-3-O-β-D-glucuronide]
